Results as given in publication PMC7730961, “Discovery of Novel Dual Extracellular Regulated Protein Kinases (ERK) and Phosphoinositide 3-Kinase (PI3K) Inhibitors as a Promising Strategy for Cancer Therapy” (Molecules, 2020).
Where a name gives a salt, the structure may show the parent alone. Read-outs that look alike come from different tables or passages of the source. Values belong to the compound of their own block, whether it stands above or below them.

Columns and labels:
HCT-116 xenograft = experiment: In vivo antitumor activity, HCT-116 xenograft in nude mice; parameters: species or system Balb/c-nude mice; conditions: intraperitoneal once daily, 21 days, 32d 5 mg/kg, BVD-523 5 mg/kg, GDC-0980 1 mg/kg; for TGI (tumor growth inhibitory rate): nude mice, combination 2.5 mg/kg + 0.5 mg/kg
Description: Male five-week-old Balb/c-nude mice (18–20 g) were injected subcutaneously with HCT-116 cells (5 × 10^7/mL cells suspended in Matrigel Matrix). […] All mice were administered by intraperitoneal q.d. The tumor volumes were measured using electronic digital calipers every 3 days and were calculated as 1/2 length × width × width.

HCT116 = experiment: Anti-proliferation assay (MTT, 72 h), HCT116; type: cell-based; conditions: Homo sapiens, HCT-116, HCT116 cells
Description: (§1) Human cancer cell lines HCT116 and HEC1B were cultured in media with 10% FBS (GIBCO, Invitrogen Corporation, NY, USA) at 37 °C in a 5% (v/v) CO2 humidified incubator. The logarithmic growth phase cells were seeded in a 96-well plate with a density of 1 × 10^5 cells/mL, cultured at 37 °C, 5% CO2. Until the cells were 90% confluent, the medium containing compound was added to incubate for 72 h, and then the cell viability was tested by MTT analysis. Taking the drug concentration as the abscissa and the percentage of proliferation inhibitory activity corresponding to each concentration as the ordinate, using Graphpad Prism 5 to do nonlinear regression, the IC50 value of each compound was calculated.

HEC1B = experiment: Anti-proliferation assay (MTT, 72 h), HEC1B; type: cell-based; conditions: Homo sapiens, HEC-1B, HEC1B cells
Description: as §1

PI3Kα = PI3Kα (Homo sapiens, UniProt P42336); experiment: Enzymatic inhibition assay (ADP-Glo Plus luminescence kinase assay), PI3Kα; type: biochemical; conditions: for inhibition at 1 µM: 1 μM (1000 nM) compound
Sequence of PI3Kα (P42336 whole entry): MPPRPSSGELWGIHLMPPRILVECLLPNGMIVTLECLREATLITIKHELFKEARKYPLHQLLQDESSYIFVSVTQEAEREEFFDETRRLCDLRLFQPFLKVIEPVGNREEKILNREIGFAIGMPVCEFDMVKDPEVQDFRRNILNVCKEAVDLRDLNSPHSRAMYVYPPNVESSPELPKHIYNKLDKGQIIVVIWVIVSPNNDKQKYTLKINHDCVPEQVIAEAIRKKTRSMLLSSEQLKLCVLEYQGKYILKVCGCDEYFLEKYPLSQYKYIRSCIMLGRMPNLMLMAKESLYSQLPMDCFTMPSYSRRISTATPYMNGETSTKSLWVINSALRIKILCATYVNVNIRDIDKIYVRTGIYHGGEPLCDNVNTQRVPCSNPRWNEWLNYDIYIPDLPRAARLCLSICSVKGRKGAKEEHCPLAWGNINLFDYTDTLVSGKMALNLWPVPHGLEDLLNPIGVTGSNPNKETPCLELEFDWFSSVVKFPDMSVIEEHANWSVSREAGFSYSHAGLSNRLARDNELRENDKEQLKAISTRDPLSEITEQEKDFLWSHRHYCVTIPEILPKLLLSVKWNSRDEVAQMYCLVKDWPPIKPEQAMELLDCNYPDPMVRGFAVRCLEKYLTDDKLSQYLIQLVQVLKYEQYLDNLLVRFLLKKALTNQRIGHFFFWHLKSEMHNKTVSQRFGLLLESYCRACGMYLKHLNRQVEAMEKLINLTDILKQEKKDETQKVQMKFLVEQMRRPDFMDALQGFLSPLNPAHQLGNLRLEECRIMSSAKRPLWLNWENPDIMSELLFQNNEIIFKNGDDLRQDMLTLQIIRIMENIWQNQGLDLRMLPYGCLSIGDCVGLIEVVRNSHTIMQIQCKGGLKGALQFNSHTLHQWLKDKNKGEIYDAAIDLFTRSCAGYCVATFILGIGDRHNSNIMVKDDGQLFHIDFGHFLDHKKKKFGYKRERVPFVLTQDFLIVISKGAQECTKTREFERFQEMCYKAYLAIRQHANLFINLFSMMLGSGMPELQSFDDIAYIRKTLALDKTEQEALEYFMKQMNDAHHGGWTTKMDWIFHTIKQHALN
Sequence of PI3Kα (P27986 whole entry partner): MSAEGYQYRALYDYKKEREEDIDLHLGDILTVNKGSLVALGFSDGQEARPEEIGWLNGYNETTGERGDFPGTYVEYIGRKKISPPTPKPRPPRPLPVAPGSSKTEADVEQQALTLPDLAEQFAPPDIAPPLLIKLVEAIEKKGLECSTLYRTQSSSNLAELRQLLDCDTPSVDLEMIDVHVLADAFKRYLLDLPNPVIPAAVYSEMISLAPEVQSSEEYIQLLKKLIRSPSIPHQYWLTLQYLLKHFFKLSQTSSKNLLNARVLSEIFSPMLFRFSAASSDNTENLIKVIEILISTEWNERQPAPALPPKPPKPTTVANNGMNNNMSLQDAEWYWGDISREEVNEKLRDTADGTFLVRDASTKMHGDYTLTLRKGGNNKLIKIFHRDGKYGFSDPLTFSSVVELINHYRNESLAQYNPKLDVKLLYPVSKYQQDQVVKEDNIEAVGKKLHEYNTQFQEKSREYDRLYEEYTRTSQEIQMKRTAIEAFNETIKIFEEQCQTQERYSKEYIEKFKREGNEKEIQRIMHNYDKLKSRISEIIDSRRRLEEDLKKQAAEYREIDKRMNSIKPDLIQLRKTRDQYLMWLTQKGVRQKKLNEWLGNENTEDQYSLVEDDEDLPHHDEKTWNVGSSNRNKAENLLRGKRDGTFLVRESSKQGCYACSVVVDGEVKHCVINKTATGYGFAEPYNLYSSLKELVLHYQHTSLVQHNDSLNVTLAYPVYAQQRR
Description: The 50 µL reaction mixture contains 40 mM Tris-HCl, pH 7.4, 10 µM ATP, 10 mM MgCl2, 0.1 mg/mL BSA, 1 mM DTT, 0.2 ug/mL ERK 2, ERK 1, PI3Kα, PI3Kβ, PI3Kγ or PI3Kδ and 100 uM lipid substrate. All compounds were diluted in 10% DMSO and tested in 10-dose with 3-fold serial dilution starting at a concentration of 1 μM. Of the dilution, 5 µL was added to a 50 µL reaction so that the final concentration of DMSO is 1% in all of reactions. After all of the reaction mixtures were conducted at 30 °C for 40 min, the assay was performed using ADP-Glo Plus luminescence kinase assay kit. The luminescence signal and the intensity of the luminescence signal value were detected using a multi-well spectrophotometer (the MD-SpectraMax M5 multifunctional microplate reader). It was directly proportional to the […] enzyme activity. The experimental results were converted into active percentages, a dose-response curve is drawn, and the IC50 value of inhibition was calculated using […] PRISM 5 nonlinear regression.

ERK 2 = ERK 2 (Homo sapiens, UniProt P28482); experiment: Enzymatic inhibition assay (ADP-Glo Plus luminescence kinase assay), ERK2; type: biochemical; conditions: for inhibition at 1 µM: 1 μM (1000 nM) compound
Sequence of ERK 2 (P28482 whole entry): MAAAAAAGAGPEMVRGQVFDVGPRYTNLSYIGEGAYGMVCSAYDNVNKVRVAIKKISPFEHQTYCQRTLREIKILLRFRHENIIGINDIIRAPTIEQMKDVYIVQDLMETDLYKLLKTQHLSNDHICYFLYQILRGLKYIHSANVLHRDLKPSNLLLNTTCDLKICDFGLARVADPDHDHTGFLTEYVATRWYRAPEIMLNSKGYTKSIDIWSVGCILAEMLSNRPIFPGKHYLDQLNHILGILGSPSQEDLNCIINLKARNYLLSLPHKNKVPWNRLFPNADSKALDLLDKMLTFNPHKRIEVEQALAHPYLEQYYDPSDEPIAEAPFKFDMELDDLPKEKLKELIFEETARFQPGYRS
Description: All compounds were diluted in 10% DMSO and tested in 10-dose with 3-fold serial dilution starting at a concentration of 1 μM. Of the dilution, 5 µL was added to a 50 µL reaction so that the final concentration of DMSO is 1% in all of reactions. After all of the reaction mixtures were conducted at 30 °C for 40 min, the assay was performed using ADP-Glo Plus luminescence kinase assay kit. The luminescence signal and the intensity of the luminescence signal value were detected using a multi-well spectrophotometer (the MD-SpectraMax M5 multifunctional microplate reader). It was directly proportional to the inhibition of enzyme activity.

[1] = In vivo pharmacokinetic study in SD rats; parameters: species or system Sprague Dawley rats; conditions: for MRT last: read-out: MRT0–t
Description: The pharmacokinetic experiment was conducted by using 180–220 g male Sprague Dawley rats (purchased from Weitong Lihua Experimental Animal Co., Ltd., Beijing, China). The experimental animals were raised in a well-ventilated, air-conditioned standard animal room where the temperature was maintained at 20–25 °C, the humidity was maintained at 40–70%, and the light and dark were rotated for 12 h each. After about 5 days of normal feeding, rats with good physical signs can enter this experiment after veterinary inspection. All rats were fasted for 12 h before the start of the animal experiment. The 32d was dissolved in a mixture of 40% DMSO + 40% PEG400 + 20% 5% glucose injection at a concentration of 1 mg/mL (1 mg/kg). The 32d was administered to the […] by p.o. (0.2 mg/mL, 10 mg/kg), and blood samples (about 0.25 mL) were collected from the posterior orbital venous plexus after different time points (i.v.: 2 min, 15 min, 30 min, 1 h, 2 h, 4 h, 6 h, 8 h, and 12 h; po: 5 min, 15 min, 30 min, 1 h, 2 h, 4 h, 6 h, 8 h, 12 h, and 24 h) after dosing, with three […] for each time point. The whole plasma samples were kept frozen at −20 °C until LC/MS/MS analysis after centrifugation. WinNolin 8.2 software was used to calculate pharmacokinetic parameters, and GraphPad Prism 8.0 was used to draw plasma concentration-time curves.

[2] = In vitro pharmacokinetic study, oxidation metabolism in human liver microsomes; type: in vitro ADME; conditions: n = 3
Description: The pharmacokinetic experiment was conducted by using human liver microsome (purchased from Research Institute for Liver Diseases (Shanghai) Co., Ltd., Shanghai, China). The reaction mixture contained 100 μL PBS, 40 μL liver microsome and 20 μL dilution of compound 32d. After the reaction mixtures were preconducted at 37 °C for 5 min, 40 μL NADPH solution was added to start pharmacokinetic reaction, and samples were collected at different time points (5 min, 10 min, 15 min, 30 min and 45 min). Then, 100 μL of ethyl acetate was added to stop the reaction. The whole samples were added in 10 μL of an internal standard (Phenacetin) to shake for 10 min and centrifuge at 10,000 rpm for 10 min and then taken out 300 μL of supernatant.for LC/MS/MS analysis. WinNolin 8.2 software was used to calculate pharmacokinetic parameters, and GraphPad Prism 8.0 was used to draw concentration-time curves.

Solubility = type: physicochemical; conditions: relative to parent after introducing a hydrophilic group at the pyrazole NH
[3] = male, Sprague-Dawley, rat, plasma, iv, i.v. 1 mg/kg
[4] = male, Sprague-Dawley, rat, plasma, po, p.o. 10 mg/kg

Compound: Cc1c(CN2CCN(C(=O)[C@H](C)O)CC2)sc2c(N3CCOCC3)nc(-c3cnc(N)nc3)nc12 [GDC-0980, reference compound]
body weight of nude mice during treatment (HCT-116 xenograft): losing
TGI (tumor growth inhibitory rate) (HCT-116 xenograft): 46%
IC50 (HCT116): 1060 nM
IC50 (HEC1B): 230 nM

Compound: Cc1cc(-c2n[nH]c3nc(NC(=O)NC4CCCC4)ncc23)ccn1 [16b, 1-Cyclopentyl-3-(3-(2-methylpyridin-4-yl)-1H-pyrazolo[3,4-d]pyrimidin-6-yl)urea]
inhibition at 1 µM (PI3Kα): 27.4%
inhibition at 1 µM (ERK 2): 84.8%

Compound: Cn1cc(-c2n[nH]c3nc(NC(=O)NC4CCCC4)ncc23)cn1 [16d, 1-Cyclopentyl-3-(3-(1-methyl-1H-pyrazol-4-yl)-1H-pyrazolo[3,4-d]pyrimidin-6-yl)urea]
inhibition at 1 µM (PI3Kα): 4%
inhibition at 1 µM (ERK 2): 79.5%

Compound: Cn1cc(-c2cnc3cnc(NC(=O)NCc4ccccc4)nc3c2)cn1 [32g, 1-Benzyl-3-(7-(1-methyl-1H-pyrazol-4-yl)pyrido[3,2-d]pyrimidin-2-yl)urea]
IC50 (PI3Kα): 824 nM
inhibition at 0.1 µM (PI3Kα; 100 nM compound): 32.4%
IC50 (HCT116): 10000 nM
IC50 (HEC1B): 2270 nM
IC50 (ERK 2): 83 nM
inhibition at 0.1 µM (ERK 2; 100 nM compound): 55.2%

Compound: Cn1cc(-c2cnc3cnc(NC(=O)Nc4ccccc4)nc3c2)cn1 [32h, 1-(7-(1-Methyl-1H-pyrazol-4-yl)pyrido[3,2-d]pyrimidin-2-yl)-3-phenylurea]
inhibition at 0.1 µM (PI3Kα; 100 nM compound): 24.9%
inhibition at 0.1 µM (ERK 2; 100 nM compound): 17.2%

Compound: O=C(Nc1ncc2ncc(C3=CCNCC3)cc2n1)NC1CCCC1 [32f, 1-Cyclopentyl-3-(7-(1,2,3,6-tetrahydropyridin-4-yl)pyrido[3,2-d]pyrimidin-2-yl)urea hydrochloride]
inhibition at 0.1 µM (PI3Kα; 100 nM compound): -8.8%
inhibition at 0.1 µM (ERK 2; 100 nM compound): 0.4%

Compound: O=C(Nc1ncc2ncc(-c3ccnc(F)c3)cc2n1)NC1CCCC1 [32e, 1-Cyclopentyl-3-(7-(2-fluoropyridin-4-yl)pyrido[3,2-d]pyrimidin-2-yl)urea]
inhibition at 0.1 µM (PI3Kα; 100 nM compound): 7%
inhibition at 0.1 µM (ERK 2; 100 nM compound): 35.4%

Compound: 1-Cyclopentyl-3-(7-(2-methylpyridin-4-yl)pyrido[3,2-d]pyrimidin-2-yl)urea [32k]
PI3Kα Inhibition% (100 nM) (PI3Kα; 100 nM compound): 15.3%
ERK2 Inhibition% (100 nM) (ERK 2; 100 nM compound): 66.5%

Compound: O=C(Nc1ncc2ncc(-c3cn[nH]c3)cc2n1)NC1CCCC1 [32d, 1-(7-(1H-pyrazol-4-yl)pyrido[3,2-d]pyrimidin-2-yl)-3-cyclopentylurea]
body weight of nude mice during treatment (HCT-116 xenograft): no observed body weight loss
TGI (tumor growth inhibitory rate) (HCT-116 xenograft): 51%
AUC(0-inf) [1, 3]: 379 ng·h/mL
AUC(0-t) [1, 3]: 368 ng·h/mL
Cmax [1, 3]: 1310 ng/mL
clearance [1, 3]: 44.8 mL/min/kg
half-life [1, 3]: 2.32 h
MRT last [1, 3]: 0.99 h
Vd ([1]; male, Sprague-Dawley, rat, plasma, iv, i.v. 1 mg/kg, read-out: Vz): 9.12 L/kg
bioavailability ([1]; male, Sprague-Dawley, rat, plasma, oral, p.o. 10 mg/kg vs i.v. 1 mg/kg, read-out: oral bioavailability (F)): 9.37%
AUC(0-inf) [1, 4]: 355 ng·h/mL
AUC(0-t) [1, 4]: 192 ng·h/mL
Cmax [1, 4]: 129 ng/mL
half-life [1, 4]: 2.65 h
MRT last [1, 4]: 2.93 h
CL ([1]; p.o. 10 mg/kg): 727.9 mL/min/kg
Vz ([1]; p.o. 10 mg/kg): 244.74 L/kg
K ([2]; 90 ng/mL): 0.004 min⁻¹
half-life at 90 ng/mL [2]: 2.89 h
microsomal CLint at 90 ng/mL [2]: 16 µL/min/mg
IC50 (PI3Kα): 59 nM
inhibition at 0.1 µM (PI3Kα; 100 nM compound): 51.4%
IC50 (HCT116): 726 nM
IC50 (HEC1B): 1490 nM
IC50 (ERK 2): 73 nM
inhibition at 0.1 µM (ERK 2; 100 nM compound): 49.3%

Compound: Cc1cc(-c2n[nH]c3nc(NC(=O)NCc4ccccc4)ncc23)ccn1 [16a, 1-Benzyl-3-(3-(2-methylpyridin-4-yl)-1H-pyrazolo[3,4-d]pyrimidin-6-yl)urea]
inhibition at 1 µM (PI3Kα): 8.7%
inhibition at 1 µM (ERK 2): 98.3%

Compound: Cn1cc(-c2n[nH]c3nc(NC(=O)NCc4ccccc4)ncc23)cn1 [16c, 1-Benzyl-3-(3-(1-methyl-1H-pyrazol-4-yl)-1H-pyrazolo[3,4-d]pyrimidin-6-yl)urea]
inhibition at 1 µM (PI3Kα): 1.8%
inhibition at 1 µM (ERK 2): 97.2%

Compound: Cc1cc(-c2cnc3cnc(NC(=O)NC4CCCC4)nc3c2)ccn1 [32b, 1-Cyclopentyl-3-(7-(2-methylpyridin-4-yl)pyrido[3,2-d]pyrimidin-2-yl)urea]
inhibition at 0.1 µM (PI3Kα; 100 nM compound): 10.5%
inhibition at 0.1 µM (ERK 2; 100 nM compound): 53.7%

Compound: O=C(Nc1ncc2ncc(-c3cccc(OC(F)(F)F)c3)cc2n1)NC1CCCC1 [32c, 1-Cyclopentyl-3-(7-(3-(trifluoromethoxy)phenyl)pyrido[3,2-d]pyrimidin-2-yl)urea]
inhibition at 0.1 µM (PI3Kα; 100 nM compound): -11.3%
inhibition at 0.1 µM (ERK 2; 100 nM compound): 1.6%

More lines, main results first:

inhibition at 0.1 µM (PI3Kα; 100 nM compound): 33.4%
inhibition at 0.1 µM (ERK 2; 100 nM compound): 22.1%
Compound: CCNC(=O)Nc1ncc2ncc(-c3cnn(C)c3)cc2n1 [32i, 1-Ethyl-3-(7-(1-methyl-1H-pyrazol-4-yl)pyrido[3,2-d]pyrimidin-2-yl)urea]

IC50 (HCT116): 321 nM
inhibition at 0.1 µM (ERK 2; 100 nM compound): 97.7%
inhibition at 1 µM (ERK 2): 97.7%
Compound: CC(C)Nc1cc(-c2c[nH]c(C(=O)N[C@H](CO)c3cccc(Cl)c3)c2)c(Cl)cn1 [BVD-523, reference compound]
body weight of nude mice during treatment (HCT-116 xenograft): losing
TGI (tumor growth inhibitory rate) (HCT-116 xenograft): 50%
IC50 (HEC1B): 18000 nM

inhibition at 1 µM (PI3Kα): 15.1%
inhibition at 1 µM (ERK 2): 1.8%
Compound: Cn1cc(-c2cnc3nc(NC(=O)NC4CCCC4)ncc3c2)cn1 [compound 24, 1-Cyclopentyl-3-(6-(1-methyl-1H-pyrazol-4-yl)pyrido[2,3-d]pyrimidin-2-yl)urea]

inhibition at 0.1 µM (PI3Kα; 100 nM compound): 15.1%
inhibition at 0.1 µM (ERK 2; 100 nM compound): 6.2%
Compound: Cn1cc(-c2cnc3cnc(NC(=O)NCCN4CCOCC4)nc3c2)cn1 [32j, 1-(7-(1-Methyl-1H-pyrazol-4-yl)pyrido[3,2-d]pyrimidin-2-yl)-3-(2-morpholinoethyl)urea]

solubility (Solubility): ameliorated
inhibition at 0.1 µM (PI3Kα; 100 nM compound): 41%
inhibition at 0.1 µM (ERK 2; 100 nM compound): 8.4%
Compound: CN(C)CCn1cc(-c2cnc3cnc(NC(=O)NC4CCCC4)nc3c2)cn1 [32m, 1-Cyclopentyl-3-(7-(1-(2-(dimethylamino)ethyl)-1H-pyrazol-4-yl)pyrido[3,2-d]pyrimidin-2-yl) urea]
